Measured values as given in patent US9751888B2, “Heterocyclic compounds and uses thereof” (Infinity Pharmaceuticals, Inc., priority 2013, dated 2017).
pIC50: −log10 of the molar value.

target: human Class I PI3 kinase α (Homo sapiens (Human), UniProt P42336); assay: PI3-Kinase Promega ADP-Glo Max assay, α isoform; assay type: biochemical; details: 20 nM kinase, 3 mM ATP, 500 uM diC8-PtdInsP; read-out: Promega α PI3K IC50
Sequence (P42336 whole entry, canonical isoform): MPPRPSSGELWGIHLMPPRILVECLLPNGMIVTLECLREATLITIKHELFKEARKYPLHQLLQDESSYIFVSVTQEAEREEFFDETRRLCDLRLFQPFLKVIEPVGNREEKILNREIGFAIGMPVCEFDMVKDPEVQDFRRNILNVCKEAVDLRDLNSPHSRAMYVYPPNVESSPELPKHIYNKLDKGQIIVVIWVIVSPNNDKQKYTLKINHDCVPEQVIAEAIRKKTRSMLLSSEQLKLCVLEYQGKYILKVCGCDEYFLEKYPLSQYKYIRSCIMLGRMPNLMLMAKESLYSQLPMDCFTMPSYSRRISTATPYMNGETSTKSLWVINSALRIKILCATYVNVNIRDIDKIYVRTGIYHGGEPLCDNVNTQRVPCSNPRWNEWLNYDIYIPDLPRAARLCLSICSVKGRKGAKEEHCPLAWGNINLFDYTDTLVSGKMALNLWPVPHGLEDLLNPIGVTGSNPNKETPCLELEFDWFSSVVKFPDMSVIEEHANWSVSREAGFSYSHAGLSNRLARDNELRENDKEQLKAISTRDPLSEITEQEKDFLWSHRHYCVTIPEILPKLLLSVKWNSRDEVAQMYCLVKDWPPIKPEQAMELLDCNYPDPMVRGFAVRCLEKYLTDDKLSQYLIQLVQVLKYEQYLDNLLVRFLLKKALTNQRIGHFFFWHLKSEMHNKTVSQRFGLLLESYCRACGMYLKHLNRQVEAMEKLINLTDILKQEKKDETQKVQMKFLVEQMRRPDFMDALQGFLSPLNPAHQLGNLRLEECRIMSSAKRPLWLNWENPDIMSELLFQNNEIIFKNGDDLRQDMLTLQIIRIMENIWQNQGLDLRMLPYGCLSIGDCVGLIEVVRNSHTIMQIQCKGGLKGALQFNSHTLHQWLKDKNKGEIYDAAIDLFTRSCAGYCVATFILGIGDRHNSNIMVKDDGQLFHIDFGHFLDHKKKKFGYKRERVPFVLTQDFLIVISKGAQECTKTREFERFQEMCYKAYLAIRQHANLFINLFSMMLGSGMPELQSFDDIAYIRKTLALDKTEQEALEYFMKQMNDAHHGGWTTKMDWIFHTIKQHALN
Sequence (P27986 whole entry partner, canonical isoform): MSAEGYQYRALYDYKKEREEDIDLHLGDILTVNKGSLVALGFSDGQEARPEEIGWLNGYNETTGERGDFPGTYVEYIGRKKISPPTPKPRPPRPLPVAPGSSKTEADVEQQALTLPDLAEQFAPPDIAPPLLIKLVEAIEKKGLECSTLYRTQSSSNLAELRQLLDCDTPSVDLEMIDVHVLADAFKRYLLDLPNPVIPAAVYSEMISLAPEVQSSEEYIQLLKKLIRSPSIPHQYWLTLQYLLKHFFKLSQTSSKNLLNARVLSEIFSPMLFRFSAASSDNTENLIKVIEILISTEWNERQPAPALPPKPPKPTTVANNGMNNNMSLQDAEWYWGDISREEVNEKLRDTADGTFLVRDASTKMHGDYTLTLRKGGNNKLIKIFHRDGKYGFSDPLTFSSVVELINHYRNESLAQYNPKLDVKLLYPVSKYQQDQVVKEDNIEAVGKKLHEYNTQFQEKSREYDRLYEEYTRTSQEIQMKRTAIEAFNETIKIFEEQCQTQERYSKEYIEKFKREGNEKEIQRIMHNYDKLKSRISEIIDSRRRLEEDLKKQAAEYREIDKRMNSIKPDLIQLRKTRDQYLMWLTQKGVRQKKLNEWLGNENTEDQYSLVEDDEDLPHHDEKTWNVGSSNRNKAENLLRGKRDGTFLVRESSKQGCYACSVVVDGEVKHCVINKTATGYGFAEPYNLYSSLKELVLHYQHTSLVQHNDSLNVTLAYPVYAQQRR

SMILES | pIC50
C[C@H](NC(=O)c1c(N)nn2cccnc12)c1cc2cccc(Cl)c2c(=O)n1-c1ccc(NS(C)(=O)=O)cc1 [Compound 81] | 5.00 to 6.00
Cc1ccnc2c(C(=O)N[C@@H](C)c3cc4cccc(Cl)c4c(=O)n3-c3ccccc3)c(N)nn12 [Compound 82] | 5.00 to 6.00
C[C@H](NC(=O)c1c(N)nn2cccnc12)c1cc2cccc(OCC(F)(F)F)c2c(=O)n1-c1ccccc1 [Compound 86] | 5.00 to 6.00

Other lines, results leading:

pIC50 | SMILES
5.00 to 6.00 | C[C@H](NC(=O)c1c(N)nn2cccnc12)c1cc2cccc(Cl)c2c(=O)n1-c1ccccc1S(C)(=O)=O [Compound 83]
5.00 to 6.00 | C[C@H](NC(=O)c1c(N)nn2cccnc12)c1cc2cccc(Cl)c2c(=O)n1-c1ccccc1F [Compound 84]
5.00 to 6.00 | COc1ccccc1-n1c([C@H](C)NC(=O)c2c(N)nn3cccnc23)cc2cccc(Cl)c2c1=O [Compound 85]
5.00 to 6.00 | C[C@H](NC(=O)c1c(N)nn2cccnc12)c1nc2c(Cl)cccc2c(=O)n1-c1ccccc1 [Compound 87]

target: human Class I PI3 kinase β (Homo sapiens (Human), UniProt P42338); assay: PI3-Kinase Promega ADP-Glo Max assay, β isoform; assay type: biochemical; details: 40 nM kinase, 3 mM ATP, 500 uM diC8-PtdInsP; read-out: Promega β PI3K IC50
Sequence (P42338 whole entry, looked up, canonical isoform): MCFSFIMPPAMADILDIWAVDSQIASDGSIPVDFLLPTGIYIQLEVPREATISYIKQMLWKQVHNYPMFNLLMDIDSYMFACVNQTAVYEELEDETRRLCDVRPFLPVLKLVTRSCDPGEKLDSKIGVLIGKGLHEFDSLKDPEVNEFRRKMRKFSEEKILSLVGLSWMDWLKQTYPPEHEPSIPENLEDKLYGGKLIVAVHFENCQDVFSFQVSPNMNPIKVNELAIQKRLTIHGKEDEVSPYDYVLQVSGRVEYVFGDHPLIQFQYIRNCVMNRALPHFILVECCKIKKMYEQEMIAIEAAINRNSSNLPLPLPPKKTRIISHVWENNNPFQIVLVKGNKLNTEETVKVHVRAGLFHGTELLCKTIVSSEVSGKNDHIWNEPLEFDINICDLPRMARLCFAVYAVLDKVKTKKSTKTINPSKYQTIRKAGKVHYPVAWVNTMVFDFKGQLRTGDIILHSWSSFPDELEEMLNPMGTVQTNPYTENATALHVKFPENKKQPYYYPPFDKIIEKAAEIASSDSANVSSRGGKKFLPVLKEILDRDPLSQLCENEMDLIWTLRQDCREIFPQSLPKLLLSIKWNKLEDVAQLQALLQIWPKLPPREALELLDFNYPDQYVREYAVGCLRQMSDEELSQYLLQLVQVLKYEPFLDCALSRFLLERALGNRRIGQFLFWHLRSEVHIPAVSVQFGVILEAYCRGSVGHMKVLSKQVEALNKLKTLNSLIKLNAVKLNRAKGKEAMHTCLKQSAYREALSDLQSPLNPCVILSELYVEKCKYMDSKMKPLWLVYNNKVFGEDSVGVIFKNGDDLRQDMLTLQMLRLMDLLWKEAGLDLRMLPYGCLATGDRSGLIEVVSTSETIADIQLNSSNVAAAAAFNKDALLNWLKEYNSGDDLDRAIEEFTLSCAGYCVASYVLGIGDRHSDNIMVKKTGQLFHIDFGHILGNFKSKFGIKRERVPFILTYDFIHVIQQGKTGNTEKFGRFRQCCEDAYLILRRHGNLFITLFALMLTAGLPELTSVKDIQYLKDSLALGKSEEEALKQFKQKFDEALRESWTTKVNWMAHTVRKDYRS
Sequence (P27986 whole entry partner, looked up, canonical isoform): as the sequence (P27986 whole entry partner, canonical isoform) above

SMILES | pIC50
C[C@H](NC(=O)c1c(N)nn2cccnc12)c1cc2cccc(Cl)c2c(=O)n1-c1ccc(NS(C)(=O)=O)cc1 [Compound 81] | 6.00 to 6.30
Cc1ccnc2c(C(=O)N[C@@H](C)c3cc4cccc(Cl)c4c(=O)n3-c3ccccc3)c(N)nn12 [Compound 82] | 5.00 to 6.00
C[C@H](NC(=O)c1c(N)nn2cccnc12)c1cc2cccc(OCC(F)(F)F)c2c(=O)n1-c1ccccc1 [Compound 86] | 5.00 to 6.00

Further lines, results first:

pIC50 | SMILES
5.00 to 6.00 | C[C@H](NC(=O)c1c(N)nn2cccnc12)c1cc2cccc(Cl)c2c(=O)n1-c1ccccc1S(C)(=O)=O [Compound 83]
6.30 to 7.00 | C[C@H](NC(=O)c1c(N)nn2cccnc12)c1cc2cccc(Cl)c2c(=O)n1-c1ccccc1F [Compound 84]
6.00 to 6.30 | COc1ccccc1-n1c([C@H](C)NC(=O)c2c(N)nn3cccnc23)cc2cccc(Cl)c2c1=O [Compound 85]
5.00 to 6.00 | C[C@H](NC(=O)c1c(N)nn2cccnc12)c1nc2c(Cl)cccc2c(=O)n1-c1ccccc1 [Compound 87]

target: human Class I PI3 kinase δ (Homo sapiens (Human), UniProt O00329); assay: PI3-Kinase Promega ADP-Glo Max assay, δ isoform; assay type: biochemical; details: 20 nM kinase, 3 mM ATP, 500 uM diC8-PtdInsP; read-out: Promega δ PI3K IC50

SMILES | pIC50
C[C@H](NC(=O)c1c(N)nn2cccnc12)c1cc2cccc(Cl)c2c(=O)n1-c1ccc(NS(C)(=O)=O)cc1 [Compound 81] | 5.00 to 6.00
Cc1ccnc2c(C(=O)N[C@@H](C)c3cc4cccc(Cl)c4c(=O)n3-c3ccccc3)c(N)nn12 [Compound 82] | 5.00 to 6.00
C[C@H](NC(=O)c1c(N)nn2cccnc12)c1cc2cccc(OCC(F)(F)F)c2c(=O)n1-c1ccccc1 [Compound 86] | 5.00 to 6.00

More lines, now with the values ahead:

pIC50 | SMILES
5.00 to 6.00 | C[C@H](NC(=O)c1c(N)nn2cccnc12)c1cc2cccc(Cl)c2c(=O)n1-c1ccccc1S(C)(=O)=O [Compound 83]
6.00 to 6.30 | C[C@H](NC(=O)c1c(N)nn2cccnc12)c1cc2cccc(Cl)c2c(=O)n1-c1ccccc1F [Compound 84]
6.00 to 6.30 | COc1ccccc1-n1c([C@H](C)NC(=O)c2c(N)nn3cccnc23)cc2cccc(Cl)c2c1=O [Compound 85]
5.00 to 6.00 | C[C@H](NC(=O)c1c(N)nn2cccnc12)c1nc2c(Cl)cccc2c(=O)n1-c1ccccc1 [Compound 87]

target: human Class I PI3 kinase γ (Homo sapiens (Human), UniProt P48736); assay: PI3-Kinase Promega ADP-Glo Max assay, γ isoform; assay type: biochemical; details: 40 nM kinase, 3 mM ATP, 500 uM diC8-PtdInsP; read-out: Promega γ PI3K IC50
Experimental: Promega ADP-Glo Max assay kit (Cat. No. V7002) was utilized to determine IC50 values for α, β, δ and γ isoforms of human Class I PI3 kinases (Millipore). Samples of kinase (20 nM α or δ, 40 nM β or γ isoform) were incubated with compound for 15 minutes at room temperature in reaction buffer (15 mM HEPES pH 7.4, 20 mM NaCl, 1 mM EGTA, 0.02% Tween 20, 10 mM MgCl2, 0.2 mg/mL bovine-γ-globulins) followed by addition of ATP/diC8-PtdInsP mixture to give final concentrations of 3 mM ATP and 500 uM diC8-PtdInsP. Reactions were incubated at room temperature for 2 hours followed by addition of 25 uL of stop solution. After a 40-minute incubation at room temperature, 50 uL of Promega detection mix was added followed by incubation for 1 hour at room temperature. Plates were then read on Envision plate reader in luminescence mode. Data was converted to % inhibition using the following equation below:
[formula] where S is the sample luminescence, Pos is a positive control without added PI3K, Neg is the negative control without added compound. Data was then plotted as % inhibition vs compound concentration.
Certain compounds provided herein were tested in PI3-Kinase Promega Assay using procedures as described above to determine IC50 values for α, β, δ and/or γ isoforms.

human Class I PI3 kinase γ, sequence (P48736 whole entry, canonical isoform): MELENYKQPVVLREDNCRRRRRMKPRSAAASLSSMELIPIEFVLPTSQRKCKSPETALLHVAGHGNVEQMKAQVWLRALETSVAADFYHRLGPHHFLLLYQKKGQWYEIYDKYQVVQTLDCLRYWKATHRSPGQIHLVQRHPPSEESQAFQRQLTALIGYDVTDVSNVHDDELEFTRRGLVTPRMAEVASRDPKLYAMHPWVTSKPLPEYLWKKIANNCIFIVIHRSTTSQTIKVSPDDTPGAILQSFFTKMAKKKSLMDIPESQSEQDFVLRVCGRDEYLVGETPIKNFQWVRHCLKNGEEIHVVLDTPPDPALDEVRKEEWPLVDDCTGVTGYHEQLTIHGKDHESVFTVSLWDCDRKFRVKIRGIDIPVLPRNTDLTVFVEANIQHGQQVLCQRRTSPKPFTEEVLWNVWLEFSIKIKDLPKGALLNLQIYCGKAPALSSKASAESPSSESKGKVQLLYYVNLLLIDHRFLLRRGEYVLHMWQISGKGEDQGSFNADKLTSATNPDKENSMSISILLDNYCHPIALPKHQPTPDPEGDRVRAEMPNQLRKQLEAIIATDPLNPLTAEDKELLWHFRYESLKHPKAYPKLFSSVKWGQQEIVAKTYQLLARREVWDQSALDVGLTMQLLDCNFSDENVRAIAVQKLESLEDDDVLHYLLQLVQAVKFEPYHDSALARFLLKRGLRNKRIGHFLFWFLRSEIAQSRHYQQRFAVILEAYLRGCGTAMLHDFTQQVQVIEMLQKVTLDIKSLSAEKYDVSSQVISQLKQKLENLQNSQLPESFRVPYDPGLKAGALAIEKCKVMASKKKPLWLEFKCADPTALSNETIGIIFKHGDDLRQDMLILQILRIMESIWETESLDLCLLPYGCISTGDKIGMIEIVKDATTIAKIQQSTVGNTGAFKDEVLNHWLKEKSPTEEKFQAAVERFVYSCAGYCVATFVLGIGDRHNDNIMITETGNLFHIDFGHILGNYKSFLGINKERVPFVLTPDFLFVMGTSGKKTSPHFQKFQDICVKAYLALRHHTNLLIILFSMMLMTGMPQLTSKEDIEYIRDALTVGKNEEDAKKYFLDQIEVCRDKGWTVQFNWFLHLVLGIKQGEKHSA

SMILES | pIC50
C[C@H](NC(=O)c1c(N)nn2cccnc12)c1cc2cccc(Cl)c2c(=O)n1-c1ccc(NS(C)(=O)=O)cc1 [Compound 81] | 5.00 to 6.00
Cc1ccnc2c(C(=O)N[C@@H](C)c3cc4cccc(Cl)c4c(=O)n3-c3ccccc3)c(N)nn12 [Compound 82] | 6.00 to 6.30
C[C@H](NC(=O)c1c(N)nn2cccnc12)c1cc2cccc(OCC(F)(F)F)c2c(=O)n1-c1ccccc1 [Compound 86] | 5.00 to 6.00

Second part, the compound after the results:

pIC50 | SMILES
5.00 to 6.00 | C[C@H](NC(=O)c1c(N)nn2cccnc12)c1cc2cccc(Cl)c2c(=O)n1-c1ccccc1S(C)(=O)=O [Compound 83]
6.30 to 7.00 | C[C@H](NC(=O)c1c(N)nn2cccnc12)c1cc2cccc(Cl)c2c(=O)n1-c1ccccc1F [Compound 84]
6.30 to 7.00 | COc1ccccc1-n1c([C@H](C)NC(=O)c2c(N)nn3cccnc23)cc2cccc(Cl)c2c1=O [Compound 85]
5.00 to 6.00 | C[C@H](NC(=O)c1c(N)nn2cccnc12)c1nc2c(Cl)cccc2c(=O)n1-c1ccccc1 [Compound 87]

target: p110 δ (RAJI cells) (Homo sapiens (Human), UniProt O00329); assay: PI3K-δ selective cellular assay: phospho-AKT in anti-human IgM stimulated RAJI cells; assay type: cell-based; details: serum-starved RAJI cells stimulated with anti-human IgM
Source text: A compound's ability in selectively inhibiting PI3K-δ can be assessed using RAJI cells, i.e., B lymphocyte cells derived from lymphoma patients. Briefly, serum-starved RAJI cells are stimulated with anti-human IgM, thereby causing signaling through the B-cell receptors, as described in, for example, He et al., Leukemia Research (2009) 33: 798-802. B-cell receptor signaling is important for the activation, differentiation, and survival of B cells and certain B-cell derived cancers. Reduction of phospho-AKT is indicative of compounds that may inhibit B-cell proliferation and function in certain diseases. […] Certain compounds provided herein were tested in RAJI cell model using procedures as described above.

SMILES | pIC50
C[C@H](NC(=O)c1c(N)nn2cccnc12)c1cc2cccc(Cl)c2c(=O)n1-c1ccc(NS(C)(=O)=O)cc1 [Compound 81] | 6.30 to 7.00
Cc1ccnc2c(C(=O)N[C@@H](C)c3cc4cccc(Cl)c4c(=O)n3-c3ccccc3)c(N)nn12 [Compound 82] | 7.00 to 8.00
C[C@H](NC(=O)c1c(N)nn2cccnc12)c1cc2cccc(OCC(F)(F)F)c2c(=O)n1-c1ccccc1 [Compound 86] | 5.00 to 6.00

Continued, values first:

pIC50 | SMILES
5.00 to 6.00 | C[C@H](NC(=O)c1c(N)nn2cccnc12)c1cc2cccc(Cl)c2c(=O)n1-c1ccccc1S(C)(=O)=O [Compound 83]
7.00 to 8.00 | C[C@H](NC(=O)c1c(N)nn2cccnc12)c1cc2cccc(Cl)c2c(=O)n1-c1ccccc1F [Compound 84]
6.30 to 7.00 | COc1ccccc1-n1c([C@H](C)NC(=O)c2c(N)nn3cccnc23)cc2cccc(Cl)c2c1=O [Compound 85]
6.30 to 7.00 | C[C@H](NC(=O)c1c(N)nn2cccnc12)c1nc2c(Cl)cccc2c(=O)n1-c1ccccc1 [Compound 87]

target: p110 γ (RAW264.7 cells) (Mus musculus (Mouse), UniProt Q9JHG7); assay: PI3K-γ selective cellular assay: phospho-AKT in C5a stimulated RAW264.7 macrophages; assay type: cell-based; details: serum-starved RAW264.7 cells stimulated with C5a
Experimental: Certain compounds provided herein were tested in RAW 264.7 cell model using procedures as described above.

p110 γ (RAW264.7 cells), sequence (Q9JHG7 whole entry): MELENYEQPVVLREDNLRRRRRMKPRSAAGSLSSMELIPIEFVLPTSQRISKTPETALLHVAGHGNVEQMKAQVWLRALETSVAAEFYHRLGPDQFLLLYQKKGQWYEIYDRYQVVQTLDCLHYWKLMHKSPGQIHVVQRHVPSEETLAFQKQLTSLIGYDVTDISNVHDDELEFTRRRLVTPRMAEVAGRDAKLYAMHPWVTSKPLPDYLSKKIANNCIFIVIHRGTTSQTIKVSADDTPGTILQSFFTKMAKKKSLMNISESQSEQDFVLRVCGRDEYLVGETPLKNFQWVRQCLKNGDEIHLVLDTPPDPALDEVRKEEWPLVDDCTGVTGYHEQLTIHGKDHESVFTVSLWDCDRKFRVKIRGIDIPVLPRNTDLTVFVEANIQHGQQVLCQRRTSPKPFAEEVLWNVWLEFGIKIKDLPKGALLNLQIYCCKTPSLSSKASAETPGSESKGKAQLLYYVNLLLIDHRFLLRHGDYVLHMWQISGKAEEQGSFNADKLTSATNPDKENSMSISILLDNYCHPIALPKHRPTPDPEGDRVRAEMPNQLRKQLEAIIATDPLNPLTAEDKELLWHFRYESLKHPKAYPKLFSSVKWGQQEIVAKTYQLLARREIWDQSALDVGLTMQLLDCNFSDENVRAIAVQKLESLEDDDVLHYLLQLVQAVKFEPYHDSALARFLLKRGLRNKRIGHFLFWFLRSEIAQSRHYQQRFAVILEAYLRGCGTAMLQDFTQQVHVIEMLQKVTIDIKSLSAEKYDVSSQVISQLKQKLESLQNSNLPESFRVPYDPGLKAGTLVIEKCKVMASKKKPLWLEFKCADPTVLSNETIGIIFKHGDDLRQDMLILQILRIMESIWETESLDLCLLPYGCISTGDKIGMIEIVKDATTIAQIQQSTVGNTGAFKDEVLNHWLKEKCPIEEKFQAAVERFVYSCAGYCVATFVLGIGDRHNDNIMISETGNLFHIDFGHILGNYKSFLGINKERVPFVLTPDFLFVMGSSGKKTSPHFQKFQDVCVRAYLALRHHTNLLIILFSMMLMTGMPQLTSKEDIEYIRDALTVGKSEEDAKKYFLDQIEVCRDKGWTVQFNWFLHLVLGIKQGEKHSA

SMILES | pIC50
C[C@H](NC(=O)c1c(N)nn2cccnc12)c1cc2cccc(Cl)c2c(=O)n1-c1ccc(NS(C)(=O)=O)cc1 [Compound 81] | 5.00 to 6.00
Cc1ccnc2c(C(=O)N[C@@H](C)c3cc4cccc(Cl)c4c(=O)n3-c3ccccc3)c(N)nn12 [Compound 82] | 7.00 to 8.00
C[C@H](NC(=O)c1c(N)nn2cccnc12)c1cc2cccc(OCC(F)(F)F)c2c(=O)n1-c1ccccc1 [Compound 86] | 6.30 to 7.00

The next lines start with the values.

pIC50 | SMILES
6.00 to 6.30 | C[C@H](NC(=O)c1c(N)nn2cccnc12)c1cc2cccc(Cl)c2c(=O)n1-c1ccccc1S(C)(=O)=O [Compound 83]
7.00 to 8.00 | C[C@H](NC(=O)c1c(N)nn2cccnc12)c1cc2cccc(Cl)c2c(=O)n1-c1ccccc1F [Compound 84]
7.00 to 8.00 | COc1ccccc1-n1c([C@H](C)NC(=O)c2c(N)nn3cccnc23)cc2cccc(Cl)c2c1=O [Compound 85]
6.30 to 7.00 | C[C@H](NC(=O)c1c(N)nn2cccnc12)c1nc2c(Cl)cccc2c(=O)n1-c1ccccc1 [Compound 87]
